{"source": "patent US8420660B2", "about": "“Antitubercular alkaloid” (priority 2011, dated 2013)", "key": {"[1]": {"test_system": "VERO cell", "assay_type": "cell-based", "details": "VERO cell CC50 (72 hours exposure) / M. tuberculosis H37Rv IC90"}, "[2]": {"test_system": "Mycobacterium tuberculosis H37Rv (ATCC 27294)", "test": "Primary screen (dose response), Microplate Alamar Blue Assay (MABA), IC90", "assay_type": "cell-based", "details": "M. tuberculosis H37Rv, BACTEC 12B medium, Level-I assay", "method": "Primary Screen (Dose Response): Determination of a 90% Inhibitory Concentration (IC90). The initial screen is conducted against Mycobacterium tuberculosis H37Rv (ATCC 27294) in BACTEC 12B medium using the Microplate Alamar Blue Assay (MABA). Compounds are tested in ten 2-fold dilutions, typically from 100 μg/mL to 0.19 μg/mL. The IC90 is defined as the concentration effecting a reduction in fluorescence of 90% relative to controls. This value is determined from the dose-response curve using a curve-fitting program. Any IC90 value of ≦10 μg/mL is considered “Active” for antitubercular activity."}}, "data": [{"substance": "10,12-diheptanoyl-11-hydroxy-3-methyl-β-carboline [Compound I]", "values": [{"measurement": "Selectivity Index (SI) = CC50 divided by IC90", "setting": "[1]", "result": "> 105.48"}, {"measurement": "IC90 (90% inhibitory concentration), antituberculosis activity", "setting": "[2]", "result": 0.948, "unit": "µg/mL"}]}]}
